Laboratory results: patent publication US20240335490A1, “COMPOSITION FOR PREVENTING OR AMELIORATING LOCOMOTIVE SYNDROME” (DIC Corporation, priority 2021, published 2024)

Legend:
[1] = test system: male and female subjects who feel a decline in mobility; assay: Mobility ameliorating effect questionnaire (0 to 10 scale, ease of walking); assay type: in vivo, human; conditions: conclusion from the results of Table 1
Experimental: (§1) Ingredients were mixed at proportions shown in Table 1 below and subjected to tablet molding to produce tableted products in Examples 1 to 3 and Comparative Examples 1 and 2 in the present invention. As the blended ingredients, commercially available products were used. In order to uniform appearance, Blue No. 2 was added to adjust the color. In each of Examples and Comparative Examples, six tableted products were produced such that the daily intake was 1,800 mg.
(§2) Twenty male and female subjects who feel a decline in mobility in their 40s to 70s were divided into five groups of four subjects each. In each group, two tablets in each of Examples 1, 2, and 3 and Comparative Examples 1 and 2 were taken three times a day in the morning, noon, and evening for four weeks. Two weeks and four weeks after the initiation of the test, the following questionnaires were carried out.
An equal-interval scale of 0 to 10 was prepared, and a score of 5 that is the middle means no change, a score closer to 0 means that walking is difficult, and a score closer to 10 means that walking is easy. The subjects were made to plot the experience evaluation. Scores plotted by the subjects were considered to be test evaluation.

[2] = test system: male and female subjects who feel a decline in mobility; assay: Joint pain reducing effect questionnaire (0 to 10 scale, pain felt in walking); assay type: in vivo, human; conditions: conclusion from the results of Table 1
Experimental: as §1, §2
An equal-interval scale of 0 to 10 was prepared, and a score of 5 that is the middle means before the initiation of the test or no change, a score closer to 0 means deterioration, and a score closer to 10 means amelioration. The subjects were made to plot the experience evaluation of the joint pain reducing effect in which the subjects felt in walking. Scores plotted by the subjects were considered to be test evaluation.

phycocyanin
mobility ameliorating effect (conclusion in words) [1]: recognized to exert
effect on the joint (conclusion in words) [2]: recognized to exert the effect on the joint
